Values of other authors as cited in US10953021B2, “Topical compositions of flunisolide and methods of treatment” (Lupin Limited, priority 2013, dated 2021).

Experiments:
[1] = animal anti-inflammatory assays, versus cortisol
[2] = McKenzie skin blanching test, versus dexamethasone

Compound: CC1(C)O[C@@H]2C[C@H]3[C@@H]4C[C@H](F)C5=CC(=O)C=C[C@]5(C)[C@H]4[C@@H](O)C[C@]3(C)[C@]2(C(=O)CO)O1 [Flunisolide, 6α-fluoro-11β, 21-dihydroxy-16α,17α-(isopropylidenedioxy)pregna-1,4-diene-3,20-dione]
- anti-inflammatory potency relative to cortisol [1]: several hundred times more potent than cortisol
- anti-inflammatory effects relative to dexamethasone [2]: several hundred times more potent than dexamethasone
